Data: PubChem BioAssay (NCI)
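48-hour exposure; five concentrations; linearly interpolated endpoints. At the TGI there is no net growth.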

How the values were obtained:
Test in all cases: NCI anticancer screen, dose series, 48 h
MCF7 breast = tested on: MCF7 breast
SNB-75 CNS = tested on: SNB-75 CNS
NCI-H226 lung = tested on: NCI-H226 lung
MALME-3M melanoma = tested on: MALME-3M melanoma
UACC-62 melanoma = tested on: UACC-62 melanoma
RXF 393 renal = tested on: RXF 393 renal
U251 CNS = tested on: U251 CNS
EKVX NSCLC = tested on: EKVX NSCLC
HOP-92 NSCLC = tested on: HOP-92 NSCLC
SK-MEL-5 melanoma = tested on: SK-MEL-5 melanoma
HT29 colon = tested on: HT29 colon
ACHN renal = tested on: ACHN renal
M14 melanoma = tested on: M14 melanoma
786-0 renal = tested on: 786-0 renal
NCI-H460 lung = tested on: NCI-H460 lung
SN12C renal = tested on: SN12C renal
NCI-H23 lung = tested on: NCI-H23 lung
KM12 colon = tested on: KM12 colon
PC-3 prostate = tested on: PC-3 prostate
SK-OV-3 ovarian = tested on: SK-OV-3 ovarian
TK-10 renal = tested on: TK-10 renal
SW-620 colon = tested on: SW-620 colon
A498 renal = tested on: A498 renal
OVCAR-4 ovarian = tested on: OVCAR-4 ovarian
SK-MEL-2 melanoma = tested on: SK-MEL-2 melanoma
OVCAR-8 ovarian = tested on: OVCAR-8 ovarian
NCI/ADR-RES ovarian = tested on: NCI/ADR-RES ovarian
NCI-H522 lung = tested on: NCI-H522 lung
SF-268 CNS = tested on: SF-268 CNS
OVCAR-3 ovarian = tested on: OVCAR-3 ovarian
RPMI-8226 leukemia = tested on: RPMI-8226 leukemia
SF-539 CNS = tested on: SF-539 CNS
T-47D breast = tested on: T-47D breast
HOP-62 NSCLC = tested on: HOP-62 NSCLC
SK-MEL-28 melanoma = tested on: SK-MEL-28 melanoma
MDA-MB-435 = tested on: MDA-MB-435
HCC-2998 colon = tested on: HCC-2998 colon
UACC-257 melanoma = tested on: UACC-257 melanoma
LOX IMVI melanoma = tested on: LOX IMVI melanoma
CAKI-1 renal = tested on: CAKI-1 renal
BT-549 breast = tested on: BT-549 breast
A549 NSCLC = tested on: A549 NSCLC
SNB-19 CNS = tested on: SNB-19 CNS
CCRF-CEM leukemia = tested on: CCRF-CEM leukemia
DU-145 prostate = tested on: DU-145 prostate
COLO 205 colon = tested on: COLO 205 colon
MDA-MB-231 breast = tested on: MDA-MB-231 breast
HCT-116 colon = tested on: HCT-116 colon
HS 578T breast = tested on: HS 578T breast
MDA-N = tested on: MDA-N
SF-295 CNS = tested on: SF-295 CNS
HCT-15 colon = tested on: HCT-15 colon
UO-31 renal = tested on: UO-31 renal
HL-60(TB) leukemia = tested on: HL-60(TB) leukemia
SR leukemia = tested on: SR leukemia
MOLT-4 leukemia = tested on: MOLT-4 leukemia
IGROV1 ovarian = tested on: IGROV1 ovarian
OVCAR-5 ovarian = tested on: OVCAR-5 ovarian
K-562 leukemia = tested on: K-562 leukemia

Measured: TGI

Cn1c(=O)c2ccccc2c2ccccc21
93.8 µM: A498 renal
63.1 µM: EKVX NSCLC
> 100 µM: MCF7 breast | SNB-75 CNS | NCI-H226 lung | MALME-3M melanoma | UACC-62 melanoma | RXF 393 renal | U251 CNS | HOP-92 NSCLC | HT29 colon | ACHN renal | M14 melanoma | 786-0 renal | NCI-H460 lung | SN12C renal | NCI-H23 lung | KM12 colon | PC-3 prostate | TK-10 renal | SW-620 colon | OVCAR-4 ovarian | SK-MEL-2 melanoma | OVCAR-8 ovarian | NCI/ADR-RES ovarian | NCI-H522 lung | SF-268 CNS | OVCAR-3 ovarian | RPMI-8226 leukemia | SF-539 CNS | T-47D breast | HOP-62 NSCLC | SK-MEL-28 melanoma | MDA-MB-435 | HCC-2998 colon | UACC-257 melanoma | LOX IMVI melanoma | BT-549 breast | A549 NSCLC | SNB-19 CNS | CCRF-CEM leukemia | DU-145 prostate | COLO 205 colon | MDA-MB-231 breast | HCT-116 colon | HS 578T breast | MDA-N | SF-295 CNS | HCT-15 colon | UO-31 renal
94.1 µM: SK-OV-3 ovarian
95.7 µM: SK-MEL-5 melanoma
89.8 µM: CAKI-1 renal

CNC(=O)Oc1ccc(C(=S)Nc2ccc(Br)cc2)cc1
63.9 µM: MDA-MB-435
51.3 µM: CAKI-1 renal
46.4 µM: M14 melanoma
24.8 µM: HL-60(TB) leukemia
22.4 µM: OVCAR-8 ovarian
76.1 µM: K-562 leukemia
34.9 µM: SK-MEL-5 melanoma
30.1 µM: UACC-62 melanoma
18.3 µM: CCRF-CEM leukemia
47.2 µM: SF-539 CNS
77.4 µM: OVCAR-5 ovarian
60.5 µM: 786-0 renal
77.1 µM: OVCAR-4 ovarian
60 µM: UO-31 renal
27 µM: LOX IMVI melanoma
83.3 µM: PC-3 prostate
57.3 µM: MDA-N
53.3 µM: A498 renal
98.8 µM: MALME-3M melanoma
18.7 µM: IGROV1 ovarian
42 µM: EKVX NSCLC
> 100 µM: ACHN renal | SK-OV-3 ovarian | SW-620 colon | SF-268 CNS | RPMI-8226 leukemia | HOP-62 NSCLC | UACC-257 melanoma | A549 NSCLC | SNB-19 CNS | HS 578T breast
46.1 µM: SR leukemia | HCT-116 colon
44.8 µM: HT29 colon
62.7 µM: SK-MEL-28 melanoma
44.2 µM: BT-549 breast
74.8 µM: U251 CNS
54.7 µM: NCI/ADR-RES ovarian
35.9 µM: KM12 colon
38.3 µM: NCI-H23 lung
41.4 µM: HCC-2998 colon
81 µM: DU-145 prostate
40.4 µM: MOLT-4 leukemia
49.4 µM: OVCAR-3 ovarian
39.2 µM: COLO 205 colon
83.4 µM: MCF7 breast
80.2 µM: T-47D breast
31.2 µM: NCI-H522 lung
46 µM: SK-MEL-2 melanoma
43.1 µM: HCT-15 colon

CCSc1cc(C(=O)OC)c2n(c1=O)CCCC2
> 100 µM: MCF7 breast | SNB-75 CNS | NCI-H226 lung | MALME-3M melanoma | UACC-62 melanoma | RXF 393 renal | U251 CNS | EKVX NSCLC | SK-MEL-5 melanoma | HT29 colon | ACHN renal | M14 melanoma | 786-0 renal | SN12C renal | NCI-H23 lung | KM12 colon | PC-3 prostate | SK-OV-3 ovarian | TK-10 renal | SW-620 colon | A498 renal | OVCAR-4 ovarian | SK-MEL-2 melanoma | OVCAR-8 ovarian | NCI/ADR-RES ovarian | NCI-H522 lung | SF-268 CNS | HL-60(TB) leukemia | SF-539 CNS | T-47D breast | HOP-62 NSCLC | MOLT-4 leukemia | SK-MEL-28 melanoma | MDA-MB-435 | UACC-257 melanoma | LOX IMVI melanoma | CAKI-1 renal | IGROV1 ovarian | BT-549 breast | A549 NSCLC | SNB-19 CNS | CCRF-CEM leukemia | DU-145 prostate | COLO 205 colon | MDA-MB-231 breast | HCT-116 colon | HS 578T breast | MDA-N | SF-295 CNS | OVCAR-5 ovarian | HCT-15 colon | UO-31 renal
